# Measured values from US20110071171A1, “2H- PYRIMIDO [2, 1-B] QUINAZOLIN-2-ONE DERIVATIVES AND THEIR USE AS PLATELET ANTI-AGGREGATIVE AGENTS” (Shire LLC, priority 2008, published 2011).
# Tests used:
# [1] = target: human phosphodiesterase III (PDE III); settings: cited from earlier work
# [2] = test system: TPO-induced megakaryocytopoiesis; settings: cited from earlier work
# [3] = test system: erythroid or myelomonocytic differentiation; settings: stimulated by erythropoietin or granulocyte-macrophage colony-stimulating factor; cited from earlier work
# [4] = test system: platelet count; settings: patients with thrombocythemia secondary to a myeloproliferative disorder; cited from earlier work
# [5] = cited from earlier work
# [6] = test system: human phosphodiesterase III (PDE III); assay: PDE III inhibition; format: biochemical; settings: more potent than anagrelide
# From the text: In early volunteer trials, the most frequently reported adverse effects AEs other than headache were palpitations, postural dizziness and nausea. During patient studies, the most frequently reported drug-related AEs were headache, palpitations, oedema/fluid retention, nausea/vomiting, diarrhea, dizziness and abdominal pain. These effects are all likely to arise from the secondary, cardiovascular pharmacology associated with anagrelide resulting from its inhibitory effects on human phosphodiesterase III (PDE III). […] Inhibition of myocardial PDE III leads to positive inotropy (increasing of the force of contractions of the heart), increased chronotropy (increase in heart rate), and peripheral vasodilatation. Such cardiovascular manifestations of this inhibition are typically seen with the classical positive inotropes, milrinone and enoximone, and exploited in the short-term acute treatment of congestive heart failure. However, in the treatment of a so-called silent disease (i.e., asymptomatic) such as ET, the cardiovascular side-effects of palpitations and tachycardia associated with anagrelide limit its utility and a significant proportion of patients—reportedly between 25 and 50%—fail to tolerate the drug during long term treatment.
# The PDE III inhibitory properties of anagrelide are quite distinct from its platelet lowering anti-megakaryocytic effects. […]
# [7] = Pharmacokinetics in humans; format: in vivo, human; settings: after anagrelide treatment
# From the text: The PDE III inhibitory properties of anagrelide are quite distinct from its platelet lowering anti-megakaryocytic effects. Indeed studies have shown no correlation between potency as a PDE III inhibitor and anti-megakaryocytic effects for anagrelide and its principal pharmacologically active metabolite, 3-hydroxyanagrelide (3-OH anagrelide or 3-HA, formerly known as SPD604 or BCH24426). […] Anagrelide's active metabolite, 3-HA, is present in vivo in amounts greatly exceeding those of the parent drug with typical exposures being 2-3 fold greater. Thus by implication 3-OH anagrelide is likely to be a major contributor to the pharmacological actions of the drug.
# The metabolism of anagrelide generally proceeds extremely rapidly, resulting in a less than ideal pharmacokinetic profile of the drug. […] This, combined with the side-effects profile, can lead to poor patient compliance. Furthermore, anagrelide undergoes a large first pass effect (>50%) leading to considerable intersubject variation in achieved exposures and, therefore, potentially variable drug response. Also, exposure to the pharmacologically active metabolite varies dramatically between patients since its formation is dependent on CYP1A, an enzyme whose expression is highly dependent on exposure to inducing agents such as cigarette smoke. […]
potency as PDE III inhibitor relative to anagrelide [6],in vivo exposure relative to parent drug [7],SMILES,IC50 [1] [nM],"IC50 ([2]; in vitro, human megakaryocytopoiesis, read-out: estimated IC50, inhibition of TPO-induced megakaryocytopoiesis) [nM]",effect on erythroid or myelomonocytic differentiation [3],time to complete response (platelet count ≦600×10^9/L) [4] [weeks],first pass effect ([5]; in vivo) [%],potency in inhibition of megakaryocytopoiesis relative to anagrelide [2],half-life ([5]; typical) [h]
,,Cc1[nH]c(=O)c(C#N)cc1-c1ccncc1 [milrinone],170 to 350,,,,,,
,,"O=C1CN2Cc3c(ccc(Cl)c3Cl)N=C2N1 [Anagrelide, 6,7-dichloro-1,5-dihydroimidazo[2,1-b]-quinazolin-2(3H)-one]",~29,~26,does not affect,4 to 12,> 50,,
over 40 fold,2-3 fold,O=C1NC2=Nc3ccc(Cl)c(Cl)c3CN2C1O (stereo not shown) [3-hydroxyanagrelide],,,,,,no more potent than the parent drug,2.5
